Experimental data reported in patent EP4660182A1, “NAV1.7- AND/OR NAV1.8-INHIBITING ARYL PYRIDINE COMPOUNDS, PROCESSES FOR THE PREPARATION THEREOF, COMPOSITIONS, USES, METHODS FOR TREATMENT USING SAME, AND KITS” (Eurofarma Laboratórios S.A., priority 2023, dated 2024).

How the values were obtained:
[1] = biological target: T1, human sodium channels Nav 1.8 (Homo sapiens, UniProt Q9Y5Y9); experiment: Automated whole-cell voltage-clamp (ScreenPatch 384P) sodium current block, Nav 1.8; assay type: cell-based; conditions: CHO cells stably expressing human Nav 1.8; inactivation step -40 mV 8 s, test step 10 mV (TP1A); eight concentrations; exposure at least five minutes; room temperature; read-out: Nav1.8 IC50
T1 construct: expressed in transfected cells
T1 sequence (Q9Y5Y9 whole entry): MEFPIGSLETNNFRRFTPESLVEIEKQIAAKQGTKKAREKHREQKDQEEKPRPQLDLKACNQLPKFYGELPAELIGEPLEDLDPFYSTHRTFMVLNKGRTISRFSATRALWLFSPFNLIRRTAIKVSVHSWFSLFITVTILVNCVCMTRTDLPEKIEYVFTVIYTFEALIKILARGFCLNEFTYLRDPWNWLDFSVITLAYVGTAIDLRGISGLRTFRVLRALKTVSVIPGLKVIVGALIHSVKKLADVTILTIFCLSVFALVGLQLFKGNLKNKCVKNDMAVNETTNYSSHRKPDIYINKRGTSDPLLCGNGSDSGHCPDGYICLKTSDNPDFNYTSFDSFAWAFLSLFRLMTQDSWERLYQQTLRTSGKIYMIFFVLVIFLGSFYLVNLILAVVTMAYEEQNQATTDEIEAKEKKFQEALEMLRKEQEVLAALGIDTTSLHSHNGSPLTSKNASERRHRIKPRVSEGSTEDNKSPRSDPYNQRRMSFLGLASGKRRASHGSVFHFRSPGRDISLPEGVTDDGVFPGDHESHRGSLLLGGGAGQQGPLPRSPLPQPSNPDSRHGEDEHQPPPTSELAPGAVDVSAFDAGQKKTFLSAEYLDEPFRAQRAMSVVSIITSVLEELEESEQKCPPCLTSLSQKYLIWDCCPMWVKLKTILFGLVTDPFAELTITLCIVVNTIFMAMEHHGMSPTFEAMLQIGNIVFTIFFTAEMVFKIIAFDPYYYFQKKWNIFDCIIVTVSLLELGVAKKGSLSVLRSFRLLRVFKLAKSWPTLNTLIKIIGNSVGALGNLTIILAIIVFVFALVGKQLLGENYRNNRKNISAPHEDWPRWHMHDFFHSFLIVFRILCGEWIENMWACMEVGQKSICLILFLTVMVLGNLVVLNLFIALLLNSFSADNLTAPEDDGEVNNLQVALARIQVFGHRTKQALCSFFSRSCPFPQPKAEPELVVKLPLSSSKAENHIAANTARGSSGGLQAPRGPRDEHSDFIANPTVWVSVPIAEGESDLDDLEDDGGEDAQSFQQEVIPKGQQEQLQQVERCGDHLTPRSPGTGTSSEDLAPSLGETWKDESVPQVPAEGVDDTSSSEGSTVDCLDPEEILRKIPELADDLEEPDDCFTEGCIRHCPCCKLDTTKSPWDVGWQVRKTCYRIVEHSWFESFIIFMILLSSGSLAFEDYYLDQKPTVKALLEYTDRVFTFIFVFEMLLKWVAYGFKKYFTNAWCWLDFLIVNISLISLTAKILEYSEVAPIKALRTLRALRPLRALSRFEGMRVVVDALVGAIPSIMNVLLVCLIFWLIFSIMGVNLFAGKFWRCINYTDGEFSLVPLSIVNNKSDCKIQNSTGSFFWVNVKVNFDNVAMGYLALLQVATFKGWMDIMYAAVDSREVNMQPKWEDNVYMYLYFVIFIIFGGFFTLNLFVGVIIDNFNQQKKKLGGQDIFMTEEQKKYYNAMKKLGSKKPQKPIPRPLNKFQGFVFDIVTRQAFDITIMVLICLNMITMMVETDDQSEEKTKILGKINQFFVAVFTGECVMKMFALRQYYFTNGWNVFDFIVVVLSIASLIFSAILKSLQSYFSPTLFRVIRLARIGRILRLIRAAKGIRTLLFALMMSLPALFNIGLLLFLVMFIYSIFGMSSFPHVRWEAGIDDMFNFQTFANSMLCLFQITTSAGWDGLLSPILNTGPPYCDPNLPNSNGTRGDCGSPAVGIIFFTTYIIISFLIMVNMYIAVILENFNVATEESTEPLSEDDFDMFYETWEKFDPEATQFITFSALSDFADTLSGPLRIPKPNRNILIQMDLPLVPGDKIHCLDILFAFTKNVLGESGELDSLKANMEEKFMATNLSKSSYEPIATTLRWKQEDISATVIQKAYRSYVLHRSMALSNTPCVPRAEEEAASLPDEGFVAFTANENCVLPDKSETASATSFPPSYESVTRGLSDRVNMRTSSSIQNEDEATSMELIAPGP
Method in brief: (§1)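 Stable CHO lines, whole-cell automated patch clamp at room temperature, ≥5 min exposure, eight concentrations. From -100 mV hold, 8 s at -40 mV, 20 ms at -100 mV, then test pulse to 10 mV (Nav 1.8) or 0 mV (Nav 1.7) at 0.05 Hz; peak-current % block fitted for IC50, averaged over repeats.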

[2] = biological target: T2, human sodium channels Nav 1.7 (Homo sapiens, UniProt Q15858); experiment: Automated whole-cell voltage-clamp (ScreenPatch 384P) sodium current block, Nav 1.7; assay type: cell-based; conditions: CHO cells stably expressing human Nav 1.7; inactivation step -40 mV 8 s, test step 0 mV (TP1A); eight concentrations; exposure at least five minutes; room temperature; read-out: Nav1.7 IC50
T2 construct: expressed in transfected cells
T2 sequence (Q15858 whole entry): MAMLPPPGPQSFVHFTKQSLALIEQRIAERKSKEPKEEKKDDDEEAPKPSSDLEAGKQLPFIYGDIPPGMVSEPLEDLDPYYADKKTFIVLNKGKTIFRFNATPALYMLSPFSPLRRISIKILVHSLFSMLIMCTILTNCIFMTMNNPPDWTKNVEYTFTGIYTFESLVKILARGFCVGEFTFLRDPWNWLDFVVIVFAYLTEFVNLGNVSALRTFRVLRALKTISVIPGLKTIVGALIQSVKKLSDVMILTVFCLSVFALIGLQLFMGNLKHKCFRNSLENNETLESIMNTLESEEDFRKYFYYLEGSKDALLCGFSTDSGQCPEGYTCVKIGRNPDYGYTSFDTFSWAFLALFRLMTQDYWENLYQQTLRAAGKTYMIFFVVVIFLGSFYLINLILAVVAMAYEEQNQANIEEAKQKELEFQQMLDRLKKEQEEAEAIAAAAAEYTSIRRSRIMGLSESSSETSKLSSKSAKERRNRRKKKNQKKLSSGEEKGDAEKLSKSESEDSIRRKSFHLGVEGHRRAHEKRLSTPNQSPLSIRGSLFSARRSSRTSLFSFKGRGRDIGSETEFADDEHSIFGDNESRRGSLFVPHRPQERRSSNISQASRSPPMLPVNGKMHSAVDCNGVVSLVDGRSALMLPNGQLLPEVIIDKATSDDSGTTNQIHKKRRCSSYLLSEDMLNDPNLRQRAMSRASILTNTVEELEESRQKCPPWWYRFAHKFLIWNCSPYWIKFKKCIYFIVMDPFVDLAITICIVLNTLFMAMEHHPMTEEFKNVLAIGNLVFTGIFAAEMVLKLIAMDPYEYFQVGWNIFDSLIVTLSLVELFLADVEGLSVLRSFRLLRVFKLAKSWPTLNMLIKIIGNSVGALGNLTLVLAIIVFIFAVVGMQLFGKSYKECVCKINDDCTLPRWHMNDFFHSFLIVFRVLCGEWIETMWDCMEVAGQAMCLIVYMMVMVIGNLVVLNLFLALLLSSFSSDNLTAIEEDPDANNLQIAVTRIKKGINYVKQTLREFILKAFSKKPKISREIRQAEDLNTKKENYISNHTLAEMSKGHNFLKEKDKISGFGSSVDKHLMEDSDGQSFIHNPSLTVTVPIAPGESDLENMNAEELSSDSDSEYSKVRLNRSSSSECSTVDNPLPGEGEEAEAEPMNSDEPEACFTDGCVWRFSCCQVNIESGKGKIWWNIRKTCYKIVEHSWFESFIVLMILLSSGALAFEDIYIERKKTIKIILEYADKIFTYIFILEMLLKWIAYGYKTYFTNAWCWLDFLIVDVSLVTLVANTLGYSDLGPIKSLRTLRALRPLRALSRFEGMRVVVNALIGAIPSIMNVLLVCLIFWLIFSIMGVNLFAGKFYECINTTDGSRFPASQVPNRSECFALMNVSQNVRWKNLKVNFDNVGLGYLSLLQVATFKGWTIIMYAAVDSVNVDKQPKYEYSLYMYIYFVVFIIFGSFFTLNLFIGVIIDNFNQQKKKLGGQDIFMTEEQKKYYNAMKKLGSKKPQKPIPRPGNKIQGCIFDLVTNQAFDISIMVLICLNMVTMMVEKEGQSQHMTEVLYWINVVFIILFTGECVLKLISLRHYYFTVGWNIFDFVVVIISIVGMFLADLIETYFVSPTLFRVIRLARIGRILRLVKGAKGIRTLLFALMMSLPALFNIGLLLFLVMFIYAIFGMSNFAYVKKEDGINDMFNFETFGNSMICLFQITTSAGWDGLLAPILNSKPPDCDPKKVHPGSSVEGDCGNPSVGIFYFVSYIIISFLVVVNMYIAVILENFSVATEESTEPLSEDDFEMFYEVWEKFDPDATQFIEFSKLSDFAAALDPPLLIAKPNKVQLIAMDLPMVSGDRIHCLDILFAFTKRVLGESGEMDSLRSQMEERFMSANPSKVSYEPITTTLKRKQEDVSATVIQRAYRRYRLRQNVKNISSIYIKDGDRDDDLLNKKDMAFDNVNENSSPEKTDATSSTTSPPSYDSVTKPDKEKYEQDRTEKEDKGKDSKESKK
Method in brief: as §1

Compound: CCOc1ccc(-c2cncc(C(=O)N/N=C/c3cc(O)cnc3F)n2)cn1 [Compound 28, (E)-6-(6-ethoxypyridine-3-yl)-N'-((2-fluoro-5-hydroxypyridine-3-yl)methylene)pyrazine-2-carbohydrazide]
- IC50 [1]: 500 to 1000 nM
- IC50 [2]: > 1000 nM

Compound: COc1cncc(/C=N/NC(=O)c2cncc(-c3ccc(OC(F)F)nc3)n2)c1 [Compound 107, (E)-6-(6-(difluoromethoxy)pyridine-3-yl)-N'-((5-methoxypyridine-3-yl)methylene)pyrazine-2-carbohydrazide]
- IC50 [1]: > 1000 nM
- IC50 [2]: > 1000 nM

Compound: CCOc1ccc(-c2cccc(C(=O)N/N=C/c3cc(OC)cnc3F)n2)cn1 [Compound 71, (E) -6'-ethoxy-N'-((2-fluoro-5-methoxypyridine-3-yl)methylene)-[2,3'-bipyridine]-6-carbohydrazide]
- IC50 [1]: < 500 nM
- IC50 [2]: 500 to 1000 nM

Compound: CCOc1ccc(-c2nc(C(=O)N/N=C/c3cc(OC)ccc3F)cnc2O)cn1 [Compound 66, (E)-6-(6-ethoxypyridine-3-yl)-N'-(2-fluoro-5-methoxybenzylidene)-5-hydroxypyrazine-2-carbohydrazide]
- IC50 [1]: > 1000 nM
- IC50 [2]: > 1000 nM

Compound: CCOc1ccc(-c2cncc(C(=O)N/N=C/c3cc(C(C)O)ccn3)n2)cn1 (stereo not shown) [Compound 31, (E)-6-(6-ethoxypyridine-3-yl)-N'-((4-(1-hydroxyethyl)pyridine-2-yl)methylene)pyrazine-2-carbohydrazide]
- IC50 [1]: > 1000 nM
- IC50 [2]: > 1000 nM

Compound: CCOc1ccc(-c2cncc(C(=O)N/N=C/c3[nH]ccc3C#N)n2)cn1 [Compound 59, (E)-N'-((3-cyano-1H-pyrrole-2-yl)methylene)-6-(6-ethoxypyridine-3-yl)pyrazine-2-carbohydrazide]
- IC50 [1]: > 1000 nM
- IC50 [2]: > 1000 nM

Compound: COc1ccc(C)c(/C=N/NC(=O)c2cncc(-c3ccc(OC(F)F)nc3)n2)c1 [Compound 102, (E)-6-(6-(difluoromethoxy)pyridine-3-yl)-N'-(5-methoxy-2-methylbenzylidene) pyrazine-2-carbohydrazide]
- IC50 [1]: < 500 nM
- IC50 [2]: > 1000 nM

Compound: CCOc1ccc(-c2nccc(C(=O)N/N=C/c3cc(OC)cnc3F)n2)cn1 [Compound 72, (E)-2-(6-ethoxypyridine-3-yl)-N'-((2-fluoro-5-methoxypyridine-3-yl)methylene) pyrimidine-4-carbohydrazide]
- IC50 [1]: < 500 nM
- IC50 [2]: > 1000 nM

Compound: CCOc1ccc(-c2cncc(C(=O)N/N=C/c3occc3OC)n2)cn1 [Compound 55, (E)-6-(6-ethoxypyridine-3-yl)-N'-((3-methoxyfuran-2-yl)methylene)pyrazine-2-carbohydrazide]
- IC50 [1]: > 1000 nM
- IC50 [2]: > 1000 nM

Compound: COc1cnc(F)c(/C=N/NC(=O)c2cncc(-c3ccc(OC4CNC4)nc3)n2)c1 [Compound 142, (E)-6-(6-(azetidin-3-yloxy)pyridine-3-yl)-N'-((2-fluoro-5-methoxypyridine-3-yl)methylene)pyrazine-2-carbohydrazide]
- IC50 [1]: > 1000 nM
- IC50 [2]: > 1000 nM

Compound: COc1ccc(F)c(/C=N/NC(=O)c2cncc(-c3ccc(OC(F)(F)F)nc3)n2)c1 [Compound 83, (E)-N'-(2-fluoro-5-methoxybenzylidene)-6-(6-(trifluoromethoxy)pyridine-3-yl)pyrazine-2-carbohydrazide]
- IC50 [1]: < 500 nM
- IC50 [2]: > 1000 nM

Compound: CCOc1ccc(-c2nc(C(=O)N/N=C/c3cc(OC)ccc3F)cnc2N)cn1 [Compound 63, (E)-5-amino-6-(6-ethoxypyridine-3-yl)-N'-(2-fluoro-5-methoxybenzylidene) pyrazine-2-carbohydrazide]
- IC50 [1]: 500 to 1000 nM
- IC50 [2]: > 1000 nM

Compound: O=C(N/N=C/c1ccccn1)c1cncc(-c2ccc(OC(F)(F)F)nc2)n1 [Compound 84, (E)-N'-(pyridine-2-ylmethylene)-6-(6-(trifluoromethoxy)pyridine-3-yl)pyrazine-2-carbohydrazide]
- IC50 [1]: > 1000 nM
- IC50 [2]: > 1000 nM

Compound: COc1ccc(F)c(/C=N/NC(=O)c2cncc(-c3ccc(OCC(C)O)nc3)n2)c1 (stereo not shown) [Compound 138, (E)-N'-(2-fluoro-5-methoxybenzylidene)-6-(6-(2-hydroxypropoxy)pyridine-3-yl) pyrazine-2-carbohydrazide]
- IC50 [1]: > 1000 nM
- IC50 [2]: > 1000 nM

Compound: [2H]C([2H])([2H])C([2H])([2H])Oc1ccc(-c2cncc(C(=O)N/N=C/c3cc(OC)cnc3F)n2)cn1 [Compound 170, (E)-6-(6-(ethoxy-d5)pyridine-3-yl)-N'-((2-fluoro-5-methoxypyridine-3-yl)methylene) pyrazine-2-carbohydrazide]
- IC50 [1]: < 500 nM
- IC50 [2]: > 1000 nM

Compound: COc1cnc(F)c(/C=N/NC(=O)c2cncc(-c3ccc(OCCC4CNC4)nc3)n2)c1 [Compound 144, (E)-6-(6-(2-(azetidine-3-yl)ethoxy)pyridine-3-yl)-N'-((2-fluoro-5-methoxypyridine-3-yl)methylene)pyrazine-2-carbohydrazide]
- IC50 [1]: > 1000 nM
- IC50 [2]: > 1000 nM

Compound: CC(O)c1cncc(/C=N/NC(=O)c2cncc(-c3ccc(OC(F)F)nc3)n2)c1 (stereo not shown) [Compound 111, (E)-6-(6-(difluoromethoxy)pyridine-3-yl)-N'-((5-(1-hydroxyethyl)pyridine-3-yl)methylene)pyrazine-2-carbohydrazide]
- IC50 [1]: > 1000 nM
- IC50 [2]: > 1000 nM

Compound: COc1ccc(F)c(/C=N/NC(=O)c2cncc(-c3cnc4nc[nH]c4c3)n2)c1 [Compound 166, (E)-N'-(2-fluoro-5-methoxybenzylidene)-6-(1H-imidazo[4,5-b]pyridine-6-yl) pyrazine-2-carbohydrazide]
- IC50 [1]: > 1000 nM
- IC50 [2]: > 1000 nM

Compound: CCOc1ccc(-c2cncc(C(=O)N/N=C/c3cc(OC)cnc3F)c2)cn1 [Compound 74, (E)-6'-ethoxy-N'-((2-fluoro-5-methoxypyridine-3-yl)methylene)-[3,3'-bipyridine]-5-carbohydrazide]
- IC50 [1]: > 1000 nM
- IC50 [2]: > 1000 nM

Compound: CCOc1ncc(-c2cncc(C(=O)N/N=C/c3cc(OC)cnc3F)n2)cc1O [Compound 157, (E)-6-(6-ethoxy-5-hydroxypyridine-3-yl)-N'-((2-fluoro-5-methoxypyridine-3-yl)methylene) pyrazine-2-carbohydrazide]
- IC50 [1]: 500 to 1000 nM
- IC50 [2]: > 1000 nM

Compound: COc1cc(/C=N/NC(=O)c2cncc(-c3ccc(OC4CC4)nc3)n2)ccc1F [Compound 81, (E)-6-(6-cyclopropoxypyridine-3-yl)-N'-(4-fluoro-3-methoxybenzylidene)pyrazine-2-carbohydrazide]
- IC50 [1]: < 500 nM
- IC50 [2]: 500 to 1000 nM

Compound: COc1cnc(F)c(/C=N/N(C)C(=O)c2cncc(-c3ccc(OC(F)F)nc3)n2)c1 [Compound 176, (E)-6-(6-(difluoromethoxy)pyridine-3-yl)-N'-((2-fluoro-5-methoxypyridine-3-yl)methylene)-N-methylpyrazine-2-carbohydrazide]
- IC50 [1]: > 1000 nM
- IC50 [2]: > 1000 nM

Compound: COc1cnc(F)c(/C=N/NC(=O)c2cncc(-c3ccc(OC(F)F)nc3C)n2)c1 [Compound 159, (E)-6-(6-(difluoromethoxy)-2-methylpyridine-3-yl)-N'-((2-fluoro-5-methoxypyridine-3-yl)methylene)pyrazine-2-carbohydrazide]
- IC50 [1]: < 500 nM
- IC50 [2]: > 1000 nM
